Assay results reported in patent publication US12091425B2 (AMGEN INC., priority 2016, dated 2024).

Target: T1, Mcl-1/Bim interaction, recombinant human Mcl-1 (171-327) (Homo sapiens, UniProt Q07820)
T1 construct: made in house
Assay: Cell free Mcl-1: Bim Affinity Assay (Mcl-1 HTRF)
Format: binding
Conditions: TR-FRET, 0.1 nM Mcl-1 (171-327), 0.05 nM biotin-Bim (51-76)
Summary of the method: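 Biotin-Bim(51-76) peptide, TR-FRET readout, overnight incubation; IC50 from duplicate competition curves, 4-parameter fit.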

T1 sequence (Q07820 171-327): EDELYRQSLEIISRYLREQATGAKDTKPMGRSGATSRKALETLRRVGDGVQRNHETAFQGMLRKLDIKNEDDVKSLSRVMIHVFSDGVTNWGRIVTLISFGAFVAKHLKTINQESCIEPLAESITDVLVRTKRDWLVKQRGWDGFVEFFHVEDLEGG

Row | IC50 [nM] | Structure (SMILES)
1 | 1.23 | CC[C@@H]1CC/C=C/[C@H](OCC2CCOCC2)[C@@H]2CC[C@H]2CN2C[C@@]3(CCCc4cc(Cl)ccc43)COc3ccc(cc32)C(=O)NS1(=O)=O [Example 983, (1S,3′R,6′R,7′S,8′E,12′R)-6-chloro-12′-ethyl-7′-(tetrahydro-2H-pyran-4-ylmethoxy)-3,4-dihydro-2H,15′H-spiro[naphthalene-1,22′-[20]oxa[13]thia[1,14]diazatetracyclo[14.7.2.0^3,6.0^19,24]pentacosa [8,16,18,24]tetraen]-15′-one 13′,13′-dioxide]
2 | 1.09 | CC[C@@H]1CC/C=C/[C@H](OCCN2CCOCC2)[C@@H]2CC[C@H]2CN2C[C@@]3(CCCc4cc(Cl)ccc43)COc3ccc(cc32)C(=O)NS1(=O)=O [Example 984, (1S,3′R,6′R,7′S,8′E,12′R)-6-chloro-12′-ethyl-7′-(2-(4-morpholinyl)ethoxy)-3,4-dihydro-2H,15′H-spiro[naphthalene-1,22′-[20]oxa[13]thia[1,14]diazatetracyclo[14.7.2.0^3,6.0^19,24]pentacosa [8,16,18,24]tetraen]-15′-one 13′,13′-dioxide]
3 | 0.644 | CC[C@@H]1CC/C=C/[C@H](OCC(=O)OC)[C@@H]2CC[C@H]2CN2C[C@@]3(CCCc4cc(Cl)ccc43)COc3ccc(cc32)C(=O)NS1(=O)=O [Example 991, methyl (((1S,3′R,6′R,7′S,8′E,12′R)-6-chloro-12′-ethyl-13′,13′-dioxido-15′-oxo-3,4-dihydro-2H-spiro[naphthalene-1,22′-[20]oxa[13]thia[1,14]diazatetracyclo[14.7.2.0^3,6.0^19,24]pentacosa [8,16,18,24]tetraen]-7′-yl)oxy)acetate]
4 | 0.221 | CC[C@@H]1CCCC[C@H](OCC(=O)O)[C@@H]2CC[C@H]2CN2C[C@@]3(CCCc4cc(Cl)ccc43)COc3ccc(cc32)C(=O)NS1(=O)=O [Example 994, (((1S,3′R,6′R,7′S,12′R)-6-chloro-12′-ethyl-13′,13′-dioxido-15′-oxo-3,4-dihydro-2H-spiro[naphthalene-1,22′-[20]oxa[13]thia[1,14]diazatetracyclo[14.7.2.0^3,6.0^19,24]pentacosa [16,18,24]trien]-7′-yl)oxy)acetic Acid]
5 | 2.14 | CC[C@@H]1CC/C=C/[C@H](OCC(=O)N2CCC(F)(F)CC2)[C@@H]2CC[C@H]2CN2C[C@@]3(CCCc4cc(Cl)ccc43)COc3ccc(cc32)C(=O)NS1(=O)=O [Example 998, (1S,3′R,6′R,7′S,8′E,12′R)-6-chloro-7′-(2-(4,4-difluoro-1-piperidinyl)-2-oxoethoxy)-12′-ethyl-3,4-dihydro-2H,15′H-spiro[naphthalene-1,22′-[20]oxa[13]thia[1,14]diazatetracyclo[14.7.2.0^3,6.0^19,24]pentacosa [8,16,18,24]tetraen]-15′-one 13′,13′-dioxide]
6 | 0.373 | CC[C@@H]1CC/C=C/[C@H](OCC(=O)N2CCS(=O)(=O)CC2)[C@@H]2CC[C@H]2CN2C[C@@]3(CCCc4cc(Cl)ccc43)COc3ccc(cc32)C(=O)NS1(=O)=O [Example 999, (1S,3′R,6′R,7′S,8′E,12′R)-6-chloro-7′-(2-(1,1-dioxido-4-thiomorpholinyl)-2-oxoethoxy)-12′-ethyl-3,4-dihydro-2H,15′H-spiro[naphthalene-1,22′-[20]oxa[13]thia[1,14]diazatetracyclo[14.7.2.0^3,6.0^19,24]pentacosa [8,16,18,24]tetraen]-15′-one 13′,13′-dioxide]
7 | 3.14 | CC[C@@H]1CC/C=C/[C@H](OCC(=O)Nc2ccncc2)[C@@H]2CC[C@H]2CN2C[C@@]3(CCCc4cc(Cl)ccc43)COc3ccc(cc32)C(=O)NS1(=O)=O [Example 1000, 2-(((1S,3′R,6′R,7′S,8′E,12′R)-6-chloro-12′-ethyl-13′,13′-dioxido-15′-oxo-3,4-dihydro-2H-spiro[naphthalene-1,22′-[20]oxa[13]thia[1,14]diazatetracyclo[14.7.2.0^3,6.0^19,24]pentacosa [8,16,18,24]tetraen]-7′-yl)oxy)-N-4-pyridinylacetamide]
